# Legend:
# [1] = test system: Mus musculus; assay: Improvement in cognitive impairment in scopolamine-induced mouse model of amnesia assessed as change in spontaneous alteration at 6 mg/kg by Y-maze test (reference value: 40.8%); type: functional
# [2] = target: T1, Cholinesterase (Homo sapiens, UniProt P06276); assay: Inhibition of human serum BuChE assessed as residual activity at 0.1 times IC50 using acetylcholine iodide as substrate measured after dilution by Ellman's method relative to control
# T1 sequence (P06276 whole entry): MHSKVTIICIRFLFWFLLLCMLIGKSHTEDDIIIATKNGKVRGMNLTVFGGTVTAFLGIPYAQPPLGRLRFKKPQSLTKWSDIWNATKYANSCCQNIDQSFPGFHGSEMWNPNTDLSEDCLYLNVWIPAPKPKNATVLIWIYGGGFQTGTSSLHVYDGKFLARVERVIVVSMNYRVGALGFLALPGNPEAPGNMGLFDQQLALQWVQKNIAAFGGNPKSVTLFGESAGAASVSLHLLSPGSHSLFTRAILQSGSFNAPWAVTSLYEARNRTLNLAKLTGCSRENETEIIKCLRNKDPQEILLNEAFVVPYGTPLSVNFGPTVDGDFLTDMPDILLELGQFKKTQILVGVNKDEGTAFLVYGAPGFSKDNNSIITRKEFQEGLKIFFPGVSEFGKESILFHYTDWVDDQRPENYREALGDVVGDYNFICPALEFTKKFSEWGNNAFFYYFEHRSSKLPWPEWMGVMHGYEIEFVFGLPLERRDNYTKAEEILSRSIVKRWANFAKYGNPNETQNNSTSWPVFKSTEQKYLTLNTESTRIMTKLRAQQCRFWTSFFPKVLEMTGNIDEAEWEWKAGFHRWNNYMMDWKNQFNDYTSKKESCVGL
# [3] = test system: Mus musculus; assay: Improvement in brain cholinergic activity in scopolamine-induced mouse model of amnesia assessed as change in ChAT vitality at 6 mg/kg (reference value: 28.8 U/g); type: functional
# [4] = Effect on spontaneous alteration behavior in mouse assessed as change in total arm entry at 6 mg/kg by Y-maze test; type: ADME, organism-based; settings: in vivo
# [5] = target: T1, Cholinesterase; assay: Inhibition of human serum BuChE assessed as residual activity at IC50 using acetylcholine iodide as substrate measured by Ellman's method relative to control
# [6] = target: T1, Cholinesterase; assay: Pseudo-irreversible inhibition of human serum BuChE assessed as residual activity at 0.1 times IC50 using acetylcholine iodide as substrate measured 240 mins post dilution by Ellman's method relative to control
# [7] = Drug uptake in iv dosed mouse hippocampus measured after 60 mins by PET imaging analysis; type: ADME, organism-based; settings: in vivo, 1 h
# [8] = Drug uptake in iv dosed mouse brain measured after 5 mins by PET imaging analysis; type: ADME, organism-based; settings: in vivo
# [9] = Drug uptake in iv dosed mouse thalamus measured after 60 mins in presence of (E)-4-(3-(3,4-dihydroisoquinolin-2(1H)-yl)-3-oxoprop-1-en-1-yl)-2-methoxyphenyl ethyl(methyl)carbamate by PET imaging analysis; type: ADME, organism-based; settings: in vivo
# [10] = Drug uptake in iv dosed mouse cerebellum measured after 60 mins by PET imaging analysis; type: ADME, organism-based; settings: in vivo, 1 h
# [11] = Drug uptake in iv dosed mouse liver measured after 30 mins by PET imaging analysis; type: ADME, organism-based; settings: in vivo, 0.5 h
# [12] = Drug uptake in iv dosed mouse brain measured up to 60 mins in presence of rivastigmine by PET imaging analysis; type: ADME, organism-based; settings: in vivo, 1 h
# [13] = Drug uptake in iv dosed mouse cerebellum measured after 60 mins in presence of (E)-4-(3-(3,4-dihydroisoquinolin-2(1H)-yl)-3-oxoprop-1-en-1-yl)-2-methoxyphenyl ethyl(methyl)carbamate by PET imaging analysis; type: ADME, organism-based; settings: in vivo
# [14] = Drug uptake in iv dosed mouse lung measured after 5 mins by PET imaging analysis; type: ADME, organism-based; settings: in vivo
# [15] = Drug uptake in iv dosed mouse cerebellum measured after 60 mins in presence of rivastigmine by PET imaging analysis; type: ADME, organism-based; settings: in vivo, 1 h
# [16] = Drug uptake in iv dosed mouse cortex measured after 60 mins in presence of (E)-4-(3-(3,4-dihydroisoquinolin-2(1H)-yl)-3-oxoprop-1-en-1-yl)-2-methoxyphenyl ethyl(methyl)carbamate by PET imaging analysis; type: ADME, organism-based; settings: in vivo
# [17] = Drug uptake in iv dosed mouse brain measured up to 60 mins in presence of (E)-4-(3-(3,4-dihydroisoquinolin-2(1H)-yl)-3-oxoprop-1-en-1-yl)-2-methoxyphenyl ethyl(methyl)carbamate by PET imaging analysis; type: ADME, organism-based; settings: in vivo
# [18] = Drug uptake in iv dosed mouse amygdala measured after 60 mins by PET imaging analysis; type: ADME, organism-based; settings: in vivo, 1 h
# [19] = Drug uptake in iv dosed mouse hippocampus measured after 60 mins in presence of (E)-4-(3-(3,4-dihydroisoquinolin-2(1H)-yl)-3-oxoprop-1-en-1-yl)-2-methoxyphenyl ethyl(methyl)carbamate by PET imaging analysis; type: ADME, organism-based; settings: in vivo
# [20] = Drug uptake in iv dosed mouse cortex measured after 60 mins by PET imaging analysis; type: ADME, organism-based; settings: in vivo, 1 h
# [21] = Drug uptake in iv dosed mouse brainstem measured after 60 mins in presence of rivastigmine by PET imaging analysis; type: ADME, organism-based; settings: in vivo, 1 h
# [22] = Drug uptake in iv dosed mouse striatum measured after 60 mins in presence of (E)-4-(3-(3,4-dihydroisoquinolin-2(1H)-yl)-3-oxoprop-1-en-1-yl)-2-methoxyphenyl ethyl(methyl)carbamate by PET imaging analysis; type: ADME, organism-based; settings: in vivo
# [23] = Drug uptake in iv dosed mouse striatum measured after 60 mins by PET imaging analysis; type: ADME, organism-based; settings: in vivo, 1 h
# [24] = Drug uptake in iv dosed mouse striatum measured after 60 mins in presence of rivastigmine by PET imaging analysis; type: ADME, organism-based; settings: in vivo, 1 h
# [25] = Drug uptake in iv dosed mouse thalamus measured after 60 mins by PET imaging analysis; type: ADME, organism-based; settings: in vivo, 1 h
# [26] = Drug uptake in iv dosed mouse heart measured after 5 mins by PET imaging analysis; type: ADME, organism-based; settings: in vivo
# [27] = Drug uptake in iv dosed mouse thalamus measured after 60 mins in presence of rivastigmine by PET imaging analysis; type: ADME, organism-based; settings: in vivo, 1 h
# [28] = Drug uptake in iv dosed mouse central gray substance of midbrain measured after 60 mins in presence of rivastigmine by PET imaging analysis; type: ADME, organism-based; settings: in vivo, 1 h
# [29] = Drug uptake in iv dosed mouse hypothalamus measured after 60 mins in presence of rivastigmine by PET imaging analysis; type: ADME, organism-based; settings: in vivo, 1 h
# [30] = Drug uptake in iv dosed mouse central gray substance of midbrain measured after 60 mins in presence of (E)-4-(3-(3,4-dihydroisoquinolin-2(1H)-yl)-3-oxoprop-1-en-1-yl)-2-methoxyphenyl ethyl(methyl)carbamate by PET imaging analysis; type: ADME, organism-based; settings: in vivo
# [31] = Drug uptake in iv dosed mouse brainstem measured after 60 mins in presence of (E)-4-(3-(3,4-dihydroisoquinolin-2(1H)-yl)-3-oxoprop-1-en-1-yl)-2-methoxyphenyl ethyl(methyl)carbamate by PET imaging analysis; type: ADME, organism-based; settings: in vivo
# [32] = Drug uptake in iv dosed mouse spleen measured after 60 mins by PET imaging analysis; type: ADME, organism-based; settings: in vivo, 1 h
# [33] = Drug uptake in iv dosed mouse hypothalamus measured after 60 mins in presence of (E)-4-(3-(3,4-dihydroisoquinolin-2(1H)-yl)-3-oxoprop-1-en-1-yl)-2-methoxyphenyl ethyl(methyl)carbamate by PET imaging analysis; type: ADME, organism-based; settings: in vivo
# [34] = Drug uptake in iv dosed mouse brain measured at 2 mins by PET imaging analysis; type: ADME, organism-based; settings: in vivo
# [35] = Drug uptake in iv dosed mouse central gray substance of midbrain measured after 60 mins by PET imaging analysis; type: ADME, organism-based; settings: in vivo, 1 h
# [36] = Drug uptake in iv dosed mouse brain measured after 60 mins by PET imaging analysis; type: ADME, organism-based; settings: in vivo, 1 h
# [37] = Drug uptake in iv dosed mouse hippocampus measured after 60 mins in presence of rivastigmine by PET imaging analysis; type: ADME, organism-based; settings: in vivo, 1 h
# [38] = Drug uptake in iv dosed mouse amygdala measured after 60 mins in presence of rivastigmine by PET imaging analysis; type: ADME, organism-based; settings: in vivo, 1 h
# [39] = Drug uptake in iv dosed mouse cortex measured after 60 mins in presence of rivastigmine by PET imaging analysis; type: ADME, organism-based; settings: in vivo, 1 h
# [40] = Drug uptake in iv dosed mouse hypothalamus measured after 60 mins by PET imaging analysis; type: ADME, organism-based; settings: in vivo, 1 h
# [41] = Drug uptake in iv dosed mouse amygdala measured after 60 mins in presence of (E)-4-(3-(3,4-dihydroisoquinolin-2(1H)-yl)-3-oxoprop-1-en-1-yl)-2-methoxyphenyl ethyl(methyl)carbamate by PET imaging analysis; type: ADME, organism-based; settings: in vivo
# [42] = Drug uptake in iv dosed mouse brainstem measured after 60 mins by PET imaging analysis; type: ADME, organism-based; settings: in vivo, 1 h
smiles,measurement,setting,value
CCN(C)C(=O)Oc1cccc([C@H](C)N(C)C)c1 [RIVASTIGMINE],Activity,[1],60.2%
same,Activity,[2],53.2%
same,Activity,[3],55.3 U/g
same,Activity,[4],Non-Toxic
same,Activity,[5],48.3%
same,Activity,[6],73.3%
CCN(C)C(=O)Oc1ccc(/C=C/C(=O)N2CCc3ccccc3C2)cc1O[11CH3],Drug uptake,[7],-9 %ID/cc
same,Drug uptake,[8],6.21 %ID/cc
same,Drug uptake,[9],Not Active
same,Drug uptake,[10],Active
same,Drug uptake,[11],14.46 %ID/cc
same,Drug uptake,[12],Not Active
same,Drug uptake,[13],Not Active
same,Drug uptake,[14],4.68 %ID/cc
same,Drug uptake,[15],Not Active
same,Drug uptake,[16],Not Active
same,Drug uptake,[17],Not Active
same,Drug uptake,[18],Active
same,Drug uptake,[19],Not Active
same,Drug uptake,[20],Active
same,Drug uptake,[21],Not Active
same,Drug uptake,[22],Not Active
same,Drug uptake,[23],-9 %ID/cc
same,Drug uptake,[24],Not Active
same,Drug uptake,[25],Active
same,Drug uptake,[26],11.8 %ID/cc
same,Drug uptake,[27],Not Active
same,Drug uptake,[28],Not Active
same,Drug uptake,[29],Not Active
same,Drug uptake,[30],Not Active
same,Drug uptake,[31],Not Active
same,Drug uptake,[32],11.49 %ID/cc
same,Drug uptake,[33],Not Active
same,Drug uptake,[34],8.76 %ID/cc
same,Drug uptake,[35],Active
same,Drug uptake,[36],Active
same,Drug uptake,[37],Not Active
same,Drug uptake,[38],Not Active
same,Drug uptake,[39],Not Active
same,Drug uptake,[40],Active
same,Drug uptake,[41],Not Active
same,Drug uptake,[42],Active
